Experimental data as given in patent US10058540B2, “2-amino-5,5-difluoro-6-(fluoromethyl)-6-phenyl-3,4,5,6-tetrahydropyridines as BACE1 inhibitors” (H. Lundbeck A/S, priority 2014, dated 2018).

Tests used:
BACE1 [1] = target: T1, BACE1 (Homo sapiens (Human), UniProt P56817); assay: BACE1 binding assay (SPA-based, radioligand); conditions: pH 4.5, Ki=IC50/(1+L/Kd)
Experimental: The binding assay was performed as SPA-based assay using a biotinylated form of human BACE1 recombinantly expressed and subsequently purified from Freestyle HEK293 cells. The binding assay was run in a 50 mM sodium acetate buffer, pH 4.5 containing 50 mM NaCl and 0.03% Tween-20 in white clear bottom 384 plates (Corning #3653). 10 nM (final concentration) radioligand ([^3H]-N-((1S,2R)-1-benzyl-3-cyclopropylamino-2-hydroxy-propyl)-5-(methanesulfonyl-methyl-amino)-N-((R)-1-phenyl-ethyl)-isophthalamide) (TRQ11569 purchased from GE Healthcare) was mixed with test compound at a given concentration, 6 nM (final concentration) human BACE1 and 25 μg Streptavidin coated PVT core SPA beads (RPNQ0007, GE Healthcare Life Sciences) in a total volume of 40 μl. Several concentrations of each test compound were tested in the assay for IC50 determination. The plates were incubated for one hour at room temperature and counted in a Wallac Trilux counter. Total and non-specific binding were determined using buffer and 1 μM (final concentration) of the high affinity BACE1 reference inhibitor (S)-6-[3-chloro-5-(5-prop-1-ynyl-pyridin-3-yl)-thiophen-2-yl]-2-imino-3,6-dimethyl-tetrahydro-pyrimidin-4-one, respectively. For each test compound, a IC50 value (the concentration mediating 50% inhibition of the specific binding of the radioligand) was determined from concentration-response curve and used to calculate the Ki from the equation Ki=IC50/(1+L/Kd), where L and Kd are the final concentration of the radioligand used in the assay and the dissociation constant of the radioligand, respectively. The Kd of the radioligand was determined from saturation binding experiments.

BACE1 [2] = target: T1, BACE1; assay: BACE1 efficacy assay (FRET-based, commercial BACE1 kit); format: biochemical; conditions: 10 μM test compound
Experimental: The efficacy assay was performed as a FRET-based assay using a commercially available BACE1 kit (Life Technologies, P2985). 2 μl test compound at 10 μM (final concentration) and 15 μl BACE1 enzyme from the kit (final concentration 3 nM) were preincubated for 15 minutes at room temperature before addition of 15 μl of substrate from the kit (250 nM final concentration) and incubated for additional 90 minutes at room temperature. The assay plate was subsequently read in a Pherastar (Ex540/Em590). The enzyme activity observed in presence of test compound were normalized to the enzyme activity observed in presence of buffer and 10 μM (final concentration) of the high affinity BACE1 reference inhibitor (S)-6-[3-Chloro-5-(5-prop-1-ynyl-pyridin-3-yl)-thiophen-2-yl]-2-imino-3,6-dimethyl-tetra-hydropyrimidin-4-one, respectively. The efficacy of the test compounds was evaluated at 10 μM (final concentration) and defined as the percent inhibition of the enzyme activity using the equation % inhibition=100%−normalized enzyme activity in percent.

P-gp (MDR1) = assay: MDCK-MDR1 assay (permeability / Pgp efflux); format: in vitro ADME; conditions: dog, Papp BA/Papp AB, Pgp substrate when ≥2
Experimental: The permeability of the test compounds was assessed in MDCK-MDR1 cells that were cultured to confluency (4-6 days) in a 96 transwell plate. Test compounds were diluted with the transport buffer (HBSS+1% BSA) to a concentration of 0.5 μM and applied to the apical or basolateral side of the cell monolayer. Permeation of the test compounds from A to B direction or B to A direction was determined in triplicate over a 60-minute incubation time at 37° C. and 5% CO2 with a relative humidity of 95%. Test compounds were quantified by LC-MS/MS analysis based on the peaks area ratios of analyte/IS in both the receiver and donor wells of the transwell plate.
The apparent permeability coefficient Papp (cm/s) was calculated using the equation: Papp=(dCr/dt)×Vr/(A×C0) Where dCr/dt is the cumulative concentration of compound in the receiver chamber as a function of time (μM/s); Vr is the solution volume in the receiver chamber (0.05 mL on the apical side; 0.25 mL on the basolateral side); A is the surface area for the transport, i.e. 0.0804 cm^2 for the area of the monolayer; C0 is the initial concentration in the donor chamber (μM).
Compounds are classified Pgp substrates when efflux ratio (Papp BA/Papp AB) is ≥2.

Aβ40 = assay: Assessment of Aβ peptide levels in rat brain and plasma following BACE1 inhibition (Aβ40 ELISA); format: in vivo; conditions: 3 hours post dose, vs vehicle
Experimental: Assessment of Aβ Peptide Levels in Rat Brain and Plasma Following BACE1 Inhibition. Animals.
Young adult Male Sprague Dawley rats of approximately 250 g weight were purchased from Charles River and received 0-30 mg/kg of vehicle (10% HP betaCD+1M MeSO4, pH 2.5) or test compounds (dissolved in vehicle) only by oral gavage (p.o). The compounds are dosed at a volume of […]. Cohorts of 5-10 animals were established for each treatment condition.
At T=180 minutes after initial dosing the animals were stunned and decapitated with a guillotine. Trunk-blood was sampled in EDTA coated tubes after decapitation of the animal. The blood was centrifuged at 2200 G at 4° C. for 15 minutes and the plasma was collected and frozen at −80° C. The blood was aliquoted for Aβ ELISA and DMPK analysis. Immediately following sacrifice, the brain was extracted and split into 2 halves. The right hemibrains were snap frozen on dry ice and stored at −80° C. The left half was dissected; with the front forebrain taken for Aβ ELISA and the remainder used for DMPK analysis. These samples were also snap frozen on dry ice and stored at −80° C. until use for analysis.
The cortex samples were thawed slightly on wet ice before they were homogenized with a small volume dispersing instrument (T10 basic ULTRA-TURRAX®) which was set at speed 5 for approximately 5-7 sec. The tissue was processed in a 10 times volume of the weight, for example 100 mg of tissue was homogenized in 1000 μL of Homogenization buffer. Homogenization buffer: 50 ml Milli Q water+[…]+0.2% Diethylamin (DEA)+1 tablet of Complete Protease inhibitor cocktail+1 nM 4-(2-aminoethyl)benzenesulfonyl fluoride hydrochloride irreversible serine protease inhibitor (AEBSF).
After homogenization 450 μL aliquots of the samples are collected into a 1.5 ml Eppendorf tube and placed on wet ice, 0.5% NP-40 (50 ul) was added to all samples and then they were incubated on ice for 30 min. After which all samples were sonicated using an Ultrasonic homogenizer with 20 kHz homogeneous sound (SONOPLUS HD2070, Bandelin Electronic) 10 pulse set at 12-13% power to extract all the Aβ species. The samples were then centrifuged (Ole Dich 157 MPRF Micro centrifuge) at 20000 G for 20 minutes at 4° C. After centrifugation 285 μL of the supernatant was pipetted into 600 μL microtubes tubes and neutralized with 15 μL of 1M Tris-HCL buffer.
WAKO 294-62501 Human/Rat Abeta amyloid (40) kit was used for all ELISA analyses. 30 μL plasma samples or 30 μL of the cortex supernatants generated as described above were placed in 600 μL microtubes tubes on wet ice. To this 30 μL of 8M Urea (AppliChem A1049, 9025) are added to generate a 2-fold dilution. Both plasma and cortex supernatants are incubated on ice for 30 min. Standard rows were prepared from the standard peptide stock provided in the kit and standard diluent containing 1.6M Urea (200 μL 8M Urea+800 μL of standard diluent) and 0.8M Urea (400 μL 8M Urea+3600 μL Standard diluent). A serial 2-fold dilution of Aβ40 from 100 pmol/ml to 0 pmol/L was prepared for the assay.
After incubation with urea, all samples were further diluted by addition of 5 times standard diluent from the Kit. This was done by adding 240 μL Standard Diluent to 60 μL sample/urea mixture, which was then mixed well. 100 μL of each diluted sample was pipetted into designated wells of the ELISA plate in duplicates. The plate was then covered and incubated overnight at 4° C. The following day, the ELISA kit was brought to room temperature before use. The incubated plate was washed 5 times with the 20× washing solution diluted in Milli Q water. 100 μL HRP-conjugate was applied to each well, and the plate was covered and incubates at 4° C. for 1 hr. The wash was repeated again for 5 times. 100 μL 3,3′,5,5′-Tetramethylbenzidine (TMB) solution was applied to each well and the plate was covered and incubated in the dark at room temperature for 30 minutes. […]

T1 sequence (P56817 46-501): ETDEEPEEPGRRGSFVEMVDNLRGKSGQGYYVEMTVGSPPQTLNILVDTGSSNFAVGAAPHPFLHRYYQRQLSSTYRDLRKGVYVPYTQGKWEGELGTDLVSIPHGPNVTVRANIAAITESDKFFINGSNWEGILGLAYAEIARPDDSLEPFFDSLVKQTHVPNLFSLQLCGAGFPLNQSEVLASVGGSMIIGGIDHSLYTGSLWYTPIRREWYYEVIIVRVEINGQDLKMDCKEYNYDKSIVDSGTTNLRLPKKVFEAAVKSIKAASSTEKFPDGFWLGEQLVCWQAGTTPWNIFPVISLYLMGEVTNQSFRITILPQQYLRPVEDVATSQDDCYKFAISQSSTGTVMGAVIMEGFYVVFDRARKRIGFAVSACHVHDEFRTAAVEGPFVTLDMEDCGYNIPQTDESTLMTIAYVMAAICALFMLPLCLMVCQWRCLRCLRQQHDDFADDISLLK

SMILES | Ki (BACE1 [1]) [nM] | inhibition at 10 µM (BACE1 [2]) [%] | efflux ratio at 60 min, 0.5 μM (P-gp (MDR1)) | Aβ40 reduction (Aβ40; rat brain, 10 mg/kg p.o.) [%] | Aβ40 reduction (Aβ40; rat brain, 30 mg/kg p.o.) [%] | Aβ40 reduction (Aβ40; rat plasma, 10 mg/kg p.o.) [%] | Aβ40 reduction (Aβ40; rat plasma, 30 mg/kg p.o.) [%]
NC1=N[C@](CF)(c2cc(NC(=O)c3cnc(C(F)F)cn3)ccc2F)C(F)(F)CC1 [Compound 9, (S)-N-(3-(6-amino-3,3-difluoro-2-(fluoromethyl)-2,3,4,5-tetrahydropyridin-2-yl)-4-fluoro-phenyl)-5-(difluoromethyl)pyrazine-2-carboxamide] | 30 | 103 | 1.76 |  |  |  | 
Cc1nc(C(=O)Nc2cc(F)c(F)c([C@@]3(CF)N=C(N)CCC3(F)F)c2)co1 [Compound 10, (S)-N-(3-(6-amino-3,3-difluoro-2-(fluoromethyl)-2,3,4,5-tetrahydropyridin-2-yl)-4,5-difluorophenyl)-2-methyloxazole-4-carboxamide] | 55 | 102 | 3.57 |  |  |  | 
NC1=N[C@](CF)(c2cc(NC(=O)c3ccc(F)cn3)cc(F)c2F)C(F)(F)CC1 [Compound 12, (S)-N-(3-(6-amino-3,3-difluoro-2-(fluoromethyl)-2,3,4,5-tetrahydropyridin-2-yl)-4,5-difluorophenyl)-5-fluoropicolinamide] | 84 | 101 | 1.11 |  |  |  | 
NC1=N[C@](CF)(c2cc(NC(=O)c3ccc(Cl)cn3)cc(F)c2F)C(F)(F)CC1 [Compound 13, (S)-N-(3-(6-amino-3,3-difluoro-2-(fluoromethyl)-2,3,4,5-tetrahydropyridin-2-yl)-4,5-difluorophenyl)-5-chloropicolinamide] | 22 | 103 | 1.11 |  |  |  | 
N#Cc1ccc(C(=O)Nc2cc(F)c(F)c([C@@]3(CF)N=C(N)CCC3(F)F)c2)nc1 [Compound 14, (S)-N-(3-(6-amino-3,3-difluoro-2-(fluoromethyl)-2,3,4,5-tetrahydropyridin-2-yl)-4,5-difluorophenyl)-5-cyanopicolinamide] | 23 | 103 | 1.81 |  |  |  | 
COc1ccc(C(=O)Nc2cc(F)c(F)c([C@@]3(CF)N=C(N)CCC3(F)F)c2)nc1 [Compound 15, (S)-N-(3-(6-amino-3,3-difluoro-2-(fluoromethyl)-2,3,4,5-tetrahydropyridin-2-yl)-4,5-difluorophenyl)-5-methoxypicolinamide] | 9 | 106 | 1.09 | 33 | 43 | 34 | 34
[2H]C([2H])([2H])Oc1ccc(C(=O)Nc2cc(F)c(F)c([C@@]3(CF)N=C(N)CCC3(F)F)c2)nc1 [Compound 16, (S)-N-(3-(6-amino-3,3-difluoro-2-(fluoromethyl)-2,3,4,5-tetrahydropyridin-2-yl)-4,5-difluorophenyl)-5-(methoxy-d3)picolinamide] | 21 | 106 | 1.1 |  |  |  | 
Cc1cc(C#N)cnc1C(=O)Nc1cc(F)c(F)c([C@@]2(CF)N=C(N)CCC2(F)F)c1 [Compound 17, (S)-N-(3-(6-amino-3,3-difluoro-2-(fluoromethyl)-2,3,4,5-tetrahydropyridin-2-yl)-4,5-difluorophenyl)-5-cyano-3-methylpicolinamide] | 16 | 111 | 2.21 |  |  |  | 
